Test results reported in PubChem BioAssay AID651901 (NMMLSC, 2012).
Calls of active or inactive are those of the source. How the calls were made is not given here.

Biological target: Lethal factor (Bacillus anthracis) (UniProt P15917)
Test: Bacillus anthracis LF protease inhibitors, dose response, biochemical, multiplex microsphere (AID 651901)
Conditions: multiplex microsphere LF protease cleavage assay, flow cytometry

Chain of Lethal factor (Bacillus anthracis) (P15917 whole entry, looked up): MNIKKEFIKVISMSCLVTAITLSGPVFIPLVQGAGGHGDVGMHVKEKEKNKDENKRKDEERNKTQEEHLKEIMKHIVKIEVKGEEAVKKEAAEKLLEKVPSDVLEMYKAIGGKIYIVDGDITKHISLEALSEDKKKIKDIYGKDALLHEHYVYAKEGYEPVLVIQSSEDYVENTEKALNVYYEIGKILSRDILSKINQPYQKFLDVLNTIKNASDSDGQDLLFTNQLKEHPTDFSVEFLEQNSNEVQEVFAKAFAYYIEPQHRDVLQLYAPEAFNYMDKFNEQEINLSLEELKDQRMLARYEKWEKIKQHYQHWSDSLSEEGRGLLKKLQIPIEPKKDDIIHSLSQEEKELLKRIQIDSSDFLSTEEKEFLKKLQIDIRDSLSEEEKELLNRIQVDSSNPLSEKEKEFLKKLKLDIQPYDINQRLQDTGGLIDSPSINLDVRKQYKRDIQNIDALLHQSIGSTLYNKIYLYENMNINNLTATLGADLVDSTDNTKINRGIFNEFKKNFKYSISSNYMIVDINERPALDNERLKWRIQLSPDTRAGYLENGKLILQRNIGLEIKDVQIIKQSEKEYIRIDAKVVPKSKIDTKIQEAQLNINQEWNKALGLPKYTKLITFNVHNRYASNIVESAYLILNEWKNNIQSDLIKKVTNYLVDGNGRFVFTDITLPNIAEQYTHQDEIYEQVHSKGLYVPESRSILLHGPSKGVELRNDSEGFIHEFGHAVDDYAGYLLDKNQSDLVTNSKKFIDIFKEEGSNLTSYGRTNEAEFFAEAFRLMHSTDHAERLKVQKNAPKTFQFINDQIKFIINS

| SMILES | IC50 |
| --- | --- |
| CNC(=O)c1ccc(N2N=C(c3ccccc3)CC2c2ccccc2)cc1 (centres undefined) | > 20 µM (inactive) |
| CSc1ccc(C2=NN(c3ccc(S(C)(=O)=O)cc3)C(c3ccccc3)C2)cc1 (centres undefined) | > 20 µM (inactive) |
| NS(=O)(=O)c1ccc(N2N=C(c3cccnc3)CC2c2ccccc2)cc1 (centres undefined) | > 20 µM (inactive) |
| c1ccc(C2CC(c3ccncc3)=NN2c2ccccc2)cc1 (centres undefined) | > 20 µM (inactive) |
| c1ccc(C2CC(c3cccnc3)=NN2c2ccccc2)cc1 (centres undefined) | > 20 µM (inactive) |
| CS(=O)(=O)c1ccc(N2N=C(c3cccnc3)CC2c2ccccc2)cc1 (centres undefined) | > 20 µM (inactive) |
| CC(C)NC(=O)c1ccc(N2N=C(c3ccccc3)CC2c2ccccc2)cc1 (centres undefined) | > 20 µM (inactive) |
| NS(=O)(=O)c1ccc(N2N=C(c3ccccc3)CC2c2ccccc2)cc1 (centres undefined) | > 20 µM (inactive) |
| CSc1ccc(C2=NN(c3ccc(S(N)(=O)=O)cc3)C(c3ccccc3)C2)cc1 (centres undefined) | > 20 µM (inactive) |
| CSc1ccc(C2=NN(c3ccc(C(=O)N4CCOCC4)cc3)C(c3ccccc3)C2)cc1 (centres undefined) | > 20 µM (inactive) |
| CSc1ccc(C2=NN(c3ccc(C(=O)N4CCCCC4)cc3)C(c3ccccc3)C2)cc1 (centres undefined) | > 20 µM (inactive) |
| c1ccc(C2CC(c3ccccn3)=NN2c2ccccc2)cc1 (centres undefined) | > 20 µM (inactive) |
| COc1ccc(N2N=C(c3ccncc3)CC2c2ccccc2)cc1 (centres undefined) | > 20 µM (inactive) |
| CC(C)CNC(=O)c1ccc(N2N=C(c3ccccc3)CC2c2ccccc2)cc1 (centres undefined) | > 20 µM (inactive) |
| c1ccc(C2=NN(c3ccccc3)C(c3ccccc3)C2)cc1 (centres undefined) | > 20 µM (inactive) |
| CS(=O)(=O)c1ccc(N2N=C(c3ccncc3)CC2c2ccccc2)cc1 (centres undefined) | > 20 µM (inactive) |
| O=C(c1ccc(N2N=C(c3ccccc3)CC2c2ccccc2)cc1)N1CCOCC1 (centres undefined) | > 20 µM (inactive) |
| CNC(=O)c1ccc(N2N=C(c3ccc(SC)cc3)CC2c2ccccc2)cc1 (centres undefined) | > 20 µM (inactive) |
| O=[N+]([O-])c1ccc(N2N=C(c3ccccc3)CC2c2ccccc2)cc1 (centres undefined) | > 20 µM (inactive) |
| O=C(c1ccc(N2N=C(c3ccccc3)CC2c2ccccc2)cc1)N1CCCCC1 (centres undefined) | > 20 µM (inactive) |
| COc1ccc(N2N=C(c3ccc(SC)cc3)CC2c2ccccc2)cc1 (centres undefined) | > 20 µM (inactive) |
| NS(=O)(=O)c1ccc(N2N=C(c3ccncc3)CC2c2ccccc2)cc1 (centres undefined) | > 20 µM (inactive) |
| COc1ccc(N2N=C(c3ccccn3)CC2c2ccccc2)cc1 (centres undefined) | > 20 µM (inactive) |
| COc1ccc(N2N=C(c3cccnc3)CC2c2ccccc2)cc1 (centres undefined) | > 20 µM (inactive) |
| CS(=O)(=O)c1ccc(N2N=C(c3ccccc3)CC2c2ccccc2)cc1 (centres undefined) | > 20 µM (inactive) |
| COc1ccc(N2N=C(c3ccccc3)CC2c2ccccc2)cc1 (centres undefined) | > 20 µM (inactive) |
| CSc1ccc(C2=NN(c3ccccc3)C(c3ccccc3)C2)cc1 (centres undefined) | > 20 µM (inactive) |
| c1ccc(-c2cc(-c3ccccc3)n(-c3ccccc3)n2)cc1 | > 20 µM (inactive) |
| CSc1ccc(C2=NN(c3ccc([N+](=O)[O-])cc3)C(c3ccccc3)C2)cc1 (centres undefined) | 0.1 µM |
